A short description of data set [1]: Parallel artificial membrane permeability assay (PAMPA). It counts as physicochemical. On the procedure:
A 96-well microtiter plate was filled with aqueous buffer (typically 0.05 M Tris, pH 7.4, or 0.05 M phosphate, pH 6.5) and covered with a filter plate in a sandwich construction. The hydrophobic filter material (Durapore/Millipore; pore size 0.22–0.45 μm) covering the first 48 wells (sample) was impregnated with 1%–20% lecithin dissolved in dodecane, hexadecane, and 1,9-decadiene. The filter cover for the remaining 48 wells (reference) was wetted with 4–5 μL of a 50% (v/v) methanol/buffer solution. The transfer of RG7774 and reference substances from the donor compartment, through the lipid-infused artificial membrane, into the acceptor compartment was initiated by transferring 100–200 μL of a 250 or 500 μM stock solution to filter plates covering the sample and reference wells, respectively. The maximum DMSO content of the stock solutions was 5%. The permeation coefficient (Peff) was determined as previously described by Kansy et al. 1998 [3].

For data set [2], the target named is T1, P-gp (Homo sapiens, UniProt P08183).
T1 construct: host or cells: LLC-PK1 (porcine kidney epithelial) cells
Briefly: P-gp assay in transfected LLC-PK1 cells. It counts as in vitro ADME. As for the experimental part: (§1) The P-gp assay was conducted as previously described. Briefly, transfected porcine kidney epithelial (LLC-PK1) cells expressing human or mouse P-gp were cultured on 96-well semi-permeable filter membrane plates (Millipore, Darmstadt, Germany). LLC-PK1 cells were provided by Dr A. Schinkel from The Netherlands Cancer Institute (Amsterdam, The Netherlands). Cells formed a polarized monolayer with tight junctions that acted as a barrier between apical and basolateral compartments. P-gp was expressed in the apical-facing membrane of the monolayer (tightness confirmed using Lucifer yellow). […] The effect of P-gp was measured by expressing the efflux ratio of the unidirectional A > B and B > A Papp values. The mean permeability (A > B and B > A Papp) was determined in the absence of P-gp via the addition of the selective P-gp inhibitor, zosuquidar.

Data set [3] addresses T2, P-gp (Mus musculus, UniProt P21447).
T2 construct: host or cells: LLC-PK1 (porcine kidney epithelial) cells
Briefly: P-gp assay in transfected LLC-PK1 cells. It counts as in vitro ADME. As for the experimental part: as §1

The next data set is described as follows: Microsomal clearance. It counts as in vitro ADME. To be noted: pH 7.4. As for the experimental part: Commercially-available ultra-pooled microsome preparations from human (150 different donors) (BD UltraPool HLM 150, Beckton Dickinson, Japan) or mouse liver tissues (Beckton Dickinson) were incubated in 96-deep-well plates containing 0.1 M phosphate buffer (pH 7.4) at 37 °C on a TECAN liquid handling system equipped with Teleshake shakers and a warming device (Tecan Group Ltd., Switzerland). The NADPH regenerating system consisted of 30 mM glucose-6-phosphate disodium salt hydrate, 10 mM NADP, 30 mM MgCl2 × 6 H2O, and 5 mg/mL glucose-6-phosphate dehydrogenase (Roche Diagnostics, IN, USA) in 0.1 M potassium phosphate buffer (pH 7.4). The microsome mixture (0.5 mg/mL) was incubated with 1 μM RG7774 in 96-well plates at 37 °C. After 1, 3, 6, 9, 15, 25, 35, and 45 min, aliquots of the incubations (40 μL) were removed and reactions were quenched with 1:3 (v/v) acetonitrile containing internal standards. Samples were cooled, centrifuged, and analyzed by liquid chromatography-mass spectroscopy (LC-MS)/mass spectroscopy (MS). Log peak area ratios (test compound peak area/internal standard peak area) were plotted against incubation time with a linear fit. The calculated slope was used to determine the intrinsic clearance: CLint (μL/min/mg protein) = –slope (min–1) × 1000/protein concentration, mg/mL.

The target in the next data set is T3, Human 5-LOX (Homo sapiens, UniProt P09917).
T3 construct: purchased Cayman Chemical Company #60402
The data set can be described thus: Human 5-LOX assay. It counts as biochemical. To be noted: RG7774 10 µM; read-out: Mean ± SEM % inhibition of control, Human 5-LOX. As for the experimental part:
The inhibitory effects of different concentrations of RG7774 (0.1-500 µM) on the activities of human recombinant 5-LOX (Cayman Chemical Company #60402), 15-LOX (Cayman Chemical Company #10011263), and human platelet-derived 12-LOX were determined using the Biovision Lipoxygenase Activity Assay Kit (#BVN-K978-100). This kit converts the LOX substrate to an intermediate that reacted with the probe, generating a fluorescent product. The effect of RG7774 (preincubated for 15 min) at 10 µM on LOXs (5-LOX: 0.5 or 1.2 µg; 12-LOX: 20 µg; 15-LOX: 0.23 or 0.3 µg) was ascertained by adding the compounds directly to the incubation medium and the fluorescent signal, recorded at excitation/emission 500/536 nm at 30 sec intervals for 30-40 min, was directly proportional to LOX activity. […] The percentage of human 5-, 12-, and 15-LOX activity (control) was estimated from the amount of oxidized probe in the reaction using a standard curve.

The record followed here is PMC11272598, “RG7774 (Vicasinabin), an orally bioavailable cannabinoid receptor 2 (CB2R) agonist, decreases retinal vascular permeability, leukocyte adhesion, and ocular inflammation in animal models” (Frontiers in Pharmacology, 2024).

T3 sequence (P09917 whole entry): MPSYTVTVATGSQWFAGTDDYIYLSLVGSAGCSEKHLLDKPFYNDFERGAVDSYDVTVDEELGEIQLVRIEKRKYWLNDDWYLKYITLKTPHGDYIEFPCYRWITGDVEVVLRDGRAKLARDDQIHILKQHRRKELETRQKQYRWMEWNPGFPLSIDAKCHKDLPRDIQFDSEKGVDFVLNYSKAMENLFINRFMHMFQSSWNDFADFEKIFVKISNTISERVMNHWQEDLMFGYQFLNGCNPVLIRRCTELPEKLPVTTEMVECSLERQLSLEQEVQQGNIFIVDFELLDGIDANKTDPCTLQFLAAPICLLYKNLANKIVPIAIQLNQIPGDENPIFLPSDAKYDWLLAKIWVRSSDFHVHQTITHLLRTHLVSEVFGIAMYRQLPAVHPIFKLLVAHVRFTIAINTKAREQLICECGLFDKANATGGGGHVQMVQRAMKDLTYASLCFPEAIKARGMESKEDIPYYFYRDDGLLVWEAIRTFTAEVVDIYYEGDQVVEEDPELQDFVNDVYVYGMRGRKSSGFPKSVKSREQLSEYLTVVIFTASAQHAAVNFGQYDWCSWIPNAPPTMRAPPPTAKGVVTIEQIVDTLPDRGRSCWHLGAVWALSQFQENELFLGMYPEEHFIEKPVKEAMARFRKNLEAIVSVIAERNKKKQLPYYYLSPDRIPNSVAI
T1 sequence (P08183 whole entry): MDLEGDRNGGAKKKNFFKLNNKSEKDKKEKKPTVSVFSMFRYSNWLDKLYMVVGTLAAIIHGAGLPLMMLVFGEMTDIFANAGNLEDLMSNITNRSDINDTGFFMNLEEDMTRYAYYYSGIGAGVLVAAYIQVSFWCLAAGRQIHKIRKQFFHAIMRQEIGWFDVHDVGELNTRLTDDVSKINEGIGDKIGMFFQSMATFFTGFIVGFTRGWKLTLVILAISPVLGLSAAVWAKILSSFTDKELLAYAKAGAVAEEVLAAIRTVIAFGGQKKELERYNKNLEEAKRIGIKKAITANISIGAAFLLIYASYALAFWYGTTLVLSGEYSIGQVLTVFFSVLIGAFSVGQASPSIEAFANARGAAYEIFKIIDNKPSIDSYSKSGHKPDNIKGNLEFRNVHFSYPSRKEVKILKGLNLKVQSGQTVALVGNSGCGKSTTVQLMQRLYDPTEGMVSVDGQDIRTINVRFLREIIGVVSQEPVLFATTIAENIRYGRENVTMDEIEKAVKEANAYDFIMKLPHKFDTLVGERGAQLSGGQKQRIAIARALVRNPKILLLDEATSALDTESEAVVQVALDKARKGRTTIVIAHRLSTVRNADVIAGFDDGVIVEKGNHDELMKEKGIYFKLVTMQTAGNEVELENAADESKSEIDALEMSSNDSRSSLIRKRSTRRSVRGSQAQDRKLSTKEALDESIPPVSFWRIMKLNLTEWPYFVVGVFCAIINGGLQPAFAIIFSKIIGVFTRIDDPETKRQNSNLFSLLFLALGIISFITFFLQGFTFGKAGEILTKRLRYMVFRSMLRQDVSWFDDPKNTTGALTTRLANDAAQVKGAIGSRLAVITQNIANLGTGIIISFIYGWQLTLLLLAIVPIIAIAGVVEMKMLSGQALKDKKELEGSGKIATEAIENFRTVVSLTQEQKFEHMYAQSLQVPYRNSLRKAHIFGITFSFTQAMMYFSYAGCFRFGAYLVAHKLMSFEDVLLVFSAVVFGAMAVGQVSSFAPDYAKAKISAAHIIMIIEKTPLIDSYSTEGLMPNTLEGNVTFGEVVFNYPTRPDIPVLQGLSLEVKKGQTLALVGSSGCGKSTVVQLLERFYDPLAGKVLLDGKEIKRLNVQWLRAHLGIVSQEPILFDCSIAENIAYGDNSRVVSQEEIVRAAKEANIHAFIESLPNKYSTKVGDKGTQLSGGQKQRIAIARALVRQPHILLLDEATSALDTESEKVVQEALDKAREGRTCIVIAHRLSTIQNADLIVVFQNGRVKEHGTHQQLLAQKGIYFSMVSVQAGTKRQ
T2 sequence (P21447 whole entry): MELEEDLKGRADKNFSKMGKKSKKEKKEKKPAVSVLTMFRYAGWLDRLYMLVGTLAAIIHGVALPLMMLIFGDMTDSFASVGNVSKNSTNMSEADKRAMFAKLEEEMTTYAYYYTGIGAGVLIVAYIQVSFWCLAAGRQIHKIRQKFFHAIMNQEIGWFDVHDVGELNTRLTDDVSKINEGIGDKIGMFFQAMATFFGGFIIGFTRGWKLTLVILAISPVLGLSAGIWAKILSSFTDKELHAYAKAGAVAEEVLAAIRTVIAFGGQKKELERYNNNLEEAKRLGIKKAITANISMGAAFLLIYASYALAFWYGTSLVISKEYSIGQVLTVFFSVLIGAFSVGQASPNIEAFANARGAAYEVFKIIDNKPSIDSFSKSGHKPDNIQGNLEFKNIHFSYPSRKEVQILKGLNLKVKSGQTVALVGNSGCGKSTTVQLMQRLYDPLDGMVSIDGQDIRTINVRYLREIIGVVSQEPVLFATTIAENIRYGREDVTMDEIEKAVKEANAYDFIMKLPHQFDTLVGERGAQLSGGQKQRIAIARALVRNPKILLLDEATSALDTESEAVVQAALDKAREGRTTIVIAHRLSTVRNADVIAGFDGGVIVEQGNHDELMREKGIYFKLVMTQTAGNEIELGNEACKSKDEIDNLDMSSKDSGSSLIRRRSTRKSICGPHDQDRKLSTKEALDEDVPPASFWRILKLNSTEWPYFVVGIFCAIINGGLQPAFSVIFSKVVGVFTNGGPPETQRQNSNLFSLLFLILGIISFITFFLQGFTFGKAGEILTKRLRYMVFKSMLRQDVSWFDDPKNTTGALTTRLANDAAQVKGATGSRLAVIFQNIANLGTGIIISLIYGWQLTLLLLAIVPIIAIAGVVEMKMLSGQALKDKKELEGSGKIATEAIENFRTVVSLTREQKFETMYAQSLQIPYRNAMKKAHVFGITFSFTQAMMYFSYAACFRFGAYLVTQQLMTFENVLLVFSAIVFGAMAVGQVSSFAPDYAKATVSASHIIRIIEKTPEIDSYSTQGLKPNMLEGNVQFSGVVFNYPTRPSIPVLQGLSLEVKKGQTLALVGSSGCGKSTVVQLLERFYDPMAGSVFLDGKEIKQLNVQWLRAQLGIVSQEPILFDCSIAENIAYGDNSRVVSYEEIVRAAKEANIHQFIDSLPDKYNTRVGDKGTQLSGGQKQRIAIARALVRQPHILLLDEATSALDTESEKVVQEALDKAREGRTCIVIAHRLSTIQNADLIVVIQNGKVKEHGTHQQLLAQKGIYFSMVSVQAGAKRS

As for `Cn1nnnc1Cn1nnc2c(N3CC[C@H](O)C3)nc(C(C)(C)C)nc21` [RG7774, (S)-1-(5-tert-butyl-3-[(1-methyl-1H-tetrazol-5-yl)methyl]-3H-[1,2,3]triazolo[4,5-d]pyrimidin-7-yl)pyrrolidin-3-ol], in data set [1], the “PAMPA P eff” value is 9.7 10^−6 cm s^−1, the PAMPA acceptor compartment is 23%, the PAMPA donor compartment is reported as 59% and the PAMPA membrane turned out to be 18%. Moreover, the efflux ratio at 3 h on P-gp [2] was determined as 2.5. For the same molecule, at P-gp [3], the efflux ratio at 3 h stood at 16.2. This molecule had a microsomal CLint at 1 µM in “Microsomal clearance” (human) of 21.7 µL/min/mg. In “Microsomal clearance” (mouse, mouse liver microsomes), this molecule had a microsomal CLint at 1 µM of 15 µL/min/mg. In addition, the microsomal CLint at 1 µM in “Microsomal clearance” (rat, rat microsomes) was found to be 25 µL/min/mg. For the same molecule, the inhibition at 10 µM at Human 5-LOX was -20.5%.
